Earlier results in patent US20130190270A1, “Method for Improving Vein Performance in Bypass Surgery” (priority 2012, published 2013).
Like-named read-outs stand apart in the source and are kept apart here.

How the values were obtained:
circulating sPLA2-IIA = settings: patients who underwent CABG
atherosclerosis [1] = settings: guinea pigs
atherosclerosis [2] = settings: mice
atherosclerosis [3] = settings: humans

heparin
effect on circulating sPLA2-IIA levels (circulating sPLA2-IIA): induce increased circulating sPLA2-IIA levels

CCc1c(C(=O)C(N)=O)c2c(OCC(=O)O)cccc2n1Cc1ccccc1
effect on atherosclerosis (atherosclerosis [1]): can reduce atherosclerosis
effect on atherosclerosis (atherosclerosis [2]): can reduce atherosclerosis
effect on atherosclerosis (atherosclerosis [3]): can reduce atherosclerosis
